Source: PMC3293077, “Pharmacokinetics of high-dose oral thiamine hydrochloride in healthy subjects” (BMC Clinical Pharmacology, 2012)
Structures can show the parent of a compound that is named as a salt. Where two headings read alike, the source gives them in different places.

Tests used:
[1] = single oral doses 100, 500, 1500 mg, healthy subjects; study not designed to detect adverse events
From the text: Subjects participated in a randomized, double-blind, single-dose, 4-way crossover study with a minimum of 1 week elapsing between trials.

[2] = mean ± SD; for AUC0-10 hr: baseline-corrected
Description: Subjects participated in a randomized, double-blind, single-dose, 4-way crossover study with a minimum of 1 week elapsing between trials. The 4 treatment groups were:
Subjects fasted overnight except for water. […] After 1 hour they were administered the study medication. Additional blood specimens were obtained immediately prior to the study medication and at 0.5, 1, 1.5, 2, 3, 4, 5, 6, 8, and 10 hours after taking the study medication. Subjects received a standardized lunch after the 6-hour blood draw. All blood specimens were drawn in duplicate (for plasma and whole blood assays) in 3 mL lavender-top vacutainers® containing K2EDTA. They were immediately placed in an ice bath and protected from the light. One vacutainer® of each pair was centrifuged at 3000 RPM for 20 min at 4°C to separate the plasma. The plasma sample and whole blood sample were then frozen at -70°C.
Thiamine tablets each containing 100 mg of thiamine hydrochloride were used (Amneal Pharmaceuticals). These were placed intact into opaque capsules. Identical capsules containing sucrose tablets were used as placebo such that the same number of capsules were used for each trial.
Quest Diagnostics analyzed all specimens for total thiamine using HPLC [4]. At Quest Diagnostics, plasma was deproteinized and then incubated with acid phosphatase to convert thiamine phosphate esters to free thiamine. The free thiamine was then oxidized to thiochrome by the addition of alkaline potassium ferricyanide. Depending on the age of the column and the temperature of the room, thiochrome retention time varied from 2.5 to 3.0 min. The mixture was injected to a Supelco (Bellefonte, PA, USA) high-performance liquid chromatographic column (7.5 cm^3 4.6 mm, particle size […]) connected to a high-performance liquid chromatographic system using a Hitachi (Pleasant, CA, USA) pump, autosampler, and fluorescent detector (excitation wavelength 365 nm, emission wavelength 440 nm). The mobile phase was 75 mmol/L of potassium phosphate at pH 7.5 with 25% methanol. The flow rate was set at 1.0 mL/min. Through this process, the thiochrome was then separated from other interfering substances and then measured fluorometrically. The amount of total thiamine in an unknown sample is proportional to the amount of thiochrome formed. The limit of quantification is 7 nmol/L. The assay range is 7 to 450 nmol/L. Samples with values above this range were diluted. The coefficient of variation for both the plasma and whole blood thiamine assays was calculated from the data collected in this study.
The thiamine levels were corrected by subtracting the baseline value. The baseline value was calculated as the average of the -1-hour and 0-hour values. Net systemic exposure to thiamine in each subject in each trial was quantitated using the area under the whole blood or plasma concentration curve from time zero through 10 hours after dosage (AUC0-10 hr). This was calculated using the cubic splines method. The overall effect of treatment condition (thiamine dose) on AUC0-10 hr in blood and plasma was tested using analysis of variance (ANOVA) for repeated measures. This was followed by the Student-Newman-Keuls procedure, nonparametric form, for evaluating all pairwise comparisons of the mean AUC0-10 hr values for the dosage groups. The peak thiamine concentration (Cmax) and the time to peak thiamine concentration (Tmax) were also calculated. Finally, half-life (t1\2) values were calculated where the terminal phase appeared log-linear.

[3] = cited from earlier work
[4] = plasma, 100 mg oral single dose
[5] = plasma, 500 mg oral single dose
[6] = plasma, 1500 mg oral single dose
[7] = whole blood, 100 mg oral single dose
[8] = whole blood, 500 mg oral single dose
[9] = whole blood, 1500 mg oral single dose

## Cc1ncc(C[n+]2csc(CCO)c2C)c(N)n1 [thiamine hydrochloride]
[1]
  side effects: no side effects were reported
[2]; [4]
  AUC0-10 hr: 0.177 ± 0.062 µM·h
  Cmax: 39 ± 13 nM
[2]; [5]
  AUC0-10 hr: 0.612 ± 0.257 µM·h
  Cmax: 113 ± 42 nM
[2]; [6]
  AUC0-10 hr: 2.059 ± 1.415 µM·h
  Cmax: 397 ± 250 nM
[2]; [7]
  AUC0-10 hr: 0.214 ± 0.069 µM·h
  Cmax: 40 ± 11 nM
[2]; [8]
  AUC0-10 hr: 0.623 ± 0.178 µM·h
  Cmax: 95 ± 27 nM
[2]; [9]
  AUC0-10 hr: 2.046 ± 1.222 µM·h
  Cmax: 385 ± 188 nM
[3]; 1000 mg oral three times a day for 2 to 12 months, Alzheimer's disease
  adverse effects: without any reports of adverse effects
[3]; titrated up to 8000 mg per day over 1 year, in 2 subjects at 7000 and 7500 mg per day
  side effects: nausea and indigestion
